Source: PMC10584170, “Machine learning-based phenotypic imaging to characterise the targetable biology of Plasmodium falciparum male gametocytes for the development of transmission-blocking antimalarials” (PLOS Pathogens, 2023)

Key:
HepG2 cells = assay: HepG2 cytotoxicity counter-screen; details: cytotoxic activity against HepG2 cells
[1] = test system: P. falciparum male gametocytes; assay: P. falciparum Dual Gamete Formation Assay (PfDGFA), male readout (exflagellation); format: cell-based, Plasmodium falciparum NF54; details: for Average inhibition male (%) / % inhibition male (individual replicates) R1 / % inhibition male (individual replicates) R3 / % inhibition male (individual replicates) R4: 24h preincubation with gametocytes; for Average inhibition male (%): average of replicates; for % inhibition male (individual replicates) R1: replicate R1; for % inhibition male (individual replicates) R3: replicate R3; for % inhibition male (individual replicates) R4: replicate R4; for Selectivity Ratio M: HepG2 Tox50 versus male IC50; for IC50: PfDGFA, 24 h incubation with gametocytes before induction, exflagellation readout, read-out: Male IC50; for HitlevelM: number of replicates with >50% inhibition in the male readout
Method in brief: (§1)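 Male and female gamete formation were quantified by microscopy image analysis following 24 h incubation of mature NF54 gametocytes with compound and activation at 28°C with xanthurenic acid.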

[2] = test system: P. falciparum female gametocytes; assay: P. falciparum Dual Gamete Formation Assay (PfDGFA), female readout (Pfs25-positive female gametes); format: cell-based, Plasmodium falciparum NF54; details: for Average inhibition female (%) / % inhibition female (individual replicates) R1 / % inhibition female (individual replicates) R3 / % inhibition female (individual replicates) R4: 24h preincubation with gametocytes; for Average inhibition female (%): average of replicates; for % inhibition female (individual replicates) R1: replicate R1; for % inhibition female (individual replicates) R3: replicate R3; for % inhibition female (individual replicates) R4: replicate R4; for Selectivity ratio F: HepG2 Tox50 versus female IC50; for IC50: PfDGFA, 24 h incubation with gametocytes before induction, female gamete readout, read-out: Female IC50; for HitlevelF: number of replicates with >50% inhibition in the female readout
Method in brief: as §1

SMILES | Tox50 (HepG2 cells) [µM] | Average inhibition male (%) ([1]; 2µM) | % inhibition male (individual replicates) R1 ([1]; 2µM) [%] | % inhibition male (individual replicates) R4 ([1]; 2µM) [%] | Selectivity Ratio M [1] | IC50 [1] [nM] | Average inhibition female (%) ([2]; 2µM) | % inhibition female (individual replicates) R1 ([2]; 2µM) [%] | Selectivity ratio F [2] | IC50 [2] [nM] | Average inhibition male (%) ([1]; PfDGFA at 2µM) | % inhibition male (individual replicates) R1 ([1]; PfDGFA at 2µM) [%] | % inhibition male (individual replicates) R3 ([1]; PfDGFA at 2µM) [%] | % inhibition male (individual replicates) R4 ([1]; PfDGFA at 2µM) [%] | HitlevelM ([1]; 2µM) | Average inhibition female (%) ([2]; PfDGFA at 2µM) | % inhibition female (individual replicates) R1 ([2]; PfDGFA at 2µM) [%] | % inhibition female (individual replicates) R3 ([2]; PfDGFA at 2µM) [%] | % inhibition female (individual replicates) R4 ([2]; PfDGFA at 2µM) [%] | HitlevelF ([2]; 2µM) | also measured
CS(=O)(=O)O.FC(F)(F)COc1c(CCNCCCCNCCc2ccc3ccccc3c2OCC(F)(F)F)ccc2ccccc12 [TCMDC-137169] | 2.63 | 91.7 | 101.1 | 99.1 | 3.23 | 810 | 87.0 | 87.1 | 2.09 | 1260 |  |  |  |  |  |  |  |  |  |  | % inhibition male (individual replicates) R3 ([1]; 2µM): 96.8%; % inhibition female (individual replicates) R3 ([2]; 2µM): 97.3%; % inhibition female (individual replicates) R4 ([2]; 2µM): 102.2%
CCN(CC)CCOc1ccc(C(O)(C#CC(O)(c2ccc(C)cc2)c2ccc(OCCN(CC)CC)cc2)c2ccc(C)cc2)cc1 (centres unmarked) [TCMDC-137198] | 2.63 |  |  |  | 2.02 | 1300 |  |  | 0.55 | 4730 | 80.0 | 79.9 | 84.8 | 81.8 | 4 | 31.2 | 31.1 | 8.3 | 48.8 | 0 | 
CCN(CC)CCOc1ccc(C(O)(C#CC(O)(c2ccc(Br)cc2)c2ccc(OCCN(CC)CC)cc2)c2ccc(Br)cc2)cc1 (centres unmarked) [TCMDC-137199] | 1.99 |  |  |  | 3.23 | 610 |  |  | 1.56 | 1270 | 78.4 | 76.2 | 84.3 | 81.8 | 4 | 19.7 | 20.5 | 18.5 | 25.4 | 0 | 
CCN(CC)CCOc1ccc(C(O)(C#CC(O)(c2ccc(OCCN(CC)CC)cc2)c2ccc([N+](=O)[O-])cc2)c2ccc([N+](=O)[O-])cc2)cc1 (centres unmarked) [TCMDC-137201] | 3.49 |  |  |  | 2.26 | 1540 |  |  | 1.17 | 2990 | 85.9 | 82.3 | 94.6 | 93.0 | 4 | 55.9 | 46.7 | 67.0 | 64.5 | 2 | 
CCCCOc1ccc(CNCCCCCCNCc2ccc(OCCCC)c3ccccc23)c2ccccc12.CS(=O)(=O)O [TCMDC-137281] | 1.45 |  |  |  | 2.64 | 550 |  |  | 2.64 | 550 | 88.9 | 95.9 | 90.2 | 93.5 | 4 | 94.7 | 94.0 | 97.9 | 90.5 | 4 | 
CS(=O)(=O)O.FC(F)(F)COc1ccc(CCNCCCCNCCc2ccc(OCC(F)(F)F)c3ccccc23)c2ccccc12 [TCMDC-137282] | 2.39 | 98.5 | 98.3 | 97.4 | 4.68 | 510 | 56.0 | 58.1 | 1.73 | 1380 |  |  |  |  |  |  |  |  |  |  | % inhibition female (individual replicates) R3 ([2]; 2µM): 59.1%; % inhibition female (individual replicates) R4 ([2]; 2µM): 54.8%
COc1ccc2c(CNCCCCCCNCc3c(OC)ccc4cc(OC)ccc34)c(OC)ccc2c1.CS(=O)(=O)O [TCMDC-137300] | 3.63 | 90.0 | 98.2 | 96.8 | 2.01 | 1810 | 77.0 | 80.6 | 0.75 | 4850 |  |  |  |  |  |  |  |  |  |  | % inhibition male (individual replicates) R3 ([1]; 2µM): 95.7%; % inhibition female (individual replicates) R3 ([2]; 2µM): 93.8%; % inhibition female (individual replicates) R4 ([2]; 2µM): 84.0%
CS(=O)(=O)O.FC(F)(F)COc1ccc2ccccc2c1CCNCCCCNCCc1c(OCC(F)(F)F)ccc2ccccc12 [TCMDC-137317] | 0.8 |  |  |  | 0.53 | 1520 |  |  | 0.26 | 3050 | 88.2 | 92.7 | 68.3 | 96.2 | 4 | 40.6 | 30.1 | 13.1 | 36.4 | 1 | 
C=CCOc1ccc2ccccc2c1CNCCCCCCNCc1c(OCC=C)ccc2ccccc12.CS(=O)(=O)O [TCMDC-137340] | 3.85 |  |  |  | 1.99 | 1930 |  |  | 1.38 | 2790 | 87.7 | 90.7 | 68.3 | 95.6 | 4 | 45.4 | 35.2 | 31.1 | 51.0 | 2 | 
Cl.N=C(NCCCCC1CCCCC1)c1cccc(C(=N)NCCCCC2CCCCC2)n1 [TCMDC-137452] | 2.66 | 99.3 | 93.4 | 104.5 | 2.02 | 1320 | 47.7 | 57.8 | 1.43 | 1860 |  |  |  |  |  |  |  |  |  |  | % inhibition female (individual replicates) R3 ([2]; 2µM): 31.9%; % inhibition female (individual replicates) R4 ([2]; 2µM): 45.9%
COc1cc(CNCCCCCCNCc2cc(OC)c3ccccc3c2OC)c(OC)c2ccccc12.CS(=O)(=O)O [TCMDC-137502] | 3.76 |  |  |  | 3.09 | 1210 |  |  | 1.24 | 3030 | 85.1 | 95.4 | 87.5 | 90.2 | 4 | 71.8 | 79.7 | 78.6 | 84.0 | 3 | 
